This is an account of results in patent US20150225369A1, “DDR2 INHIBITORS FOR THE TREATMENT OF OSTEOARTHRITIS” (Merck Patent GmbH, priority 2012, published 2015).

Like-named read-outs stand apart in the source and are kept apart here.

Assay [1] addresses T1, His-tagged human recombinant DDR-2 kinase domain (His-TEV-DDR2 467-855 aa) (Homo sapiens, UniProt Q16832).
T1 construct: His-TEV-DDR2 467-855 aa
T1 sequence (Q16832 467-855): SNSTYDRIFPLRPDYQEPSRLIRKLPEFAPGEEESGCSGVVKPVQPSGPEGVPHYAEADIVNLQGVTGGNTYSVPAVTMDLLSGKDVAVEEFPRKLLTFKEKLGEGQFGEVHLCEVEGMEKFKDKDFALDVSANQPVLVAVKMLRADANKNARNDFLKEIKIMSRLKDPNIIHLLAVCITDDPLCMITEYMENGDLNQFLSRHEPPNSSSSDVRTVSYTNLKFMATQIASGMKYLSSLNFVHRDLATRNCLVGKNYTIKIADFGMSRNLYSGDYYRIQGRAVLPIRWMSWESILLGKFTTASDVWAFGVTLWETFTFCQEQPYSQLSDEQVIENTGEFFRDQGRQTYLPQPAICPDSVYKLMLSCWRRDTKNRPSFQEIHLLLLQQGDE
As to the kind of experiment: Autophosphorylation assay for biochemical activity testing of DDR2 (HTRF). The method in brief: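 Phospho-tyrosine was detected by HTRF between XL665 anti-6His and cryptate anti-phosphotyrosine PT66 antibodies, using the emission ratio. Inhibition was referenced to the inhibitor-free reaction.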
(In general: In TR-FRET formats the signal depends on donor and acceptor labels being close together.)

For assay [2], the target named is T2, HEK293 transfected with human DDR2 (Homo sapiens, UniProt Q16832).
T2 construct: expressed in transfected cells; host or cells: HEK293 (PLT460F_(DDR2)-P7-1)
T2 sequence (Q16832 22-855): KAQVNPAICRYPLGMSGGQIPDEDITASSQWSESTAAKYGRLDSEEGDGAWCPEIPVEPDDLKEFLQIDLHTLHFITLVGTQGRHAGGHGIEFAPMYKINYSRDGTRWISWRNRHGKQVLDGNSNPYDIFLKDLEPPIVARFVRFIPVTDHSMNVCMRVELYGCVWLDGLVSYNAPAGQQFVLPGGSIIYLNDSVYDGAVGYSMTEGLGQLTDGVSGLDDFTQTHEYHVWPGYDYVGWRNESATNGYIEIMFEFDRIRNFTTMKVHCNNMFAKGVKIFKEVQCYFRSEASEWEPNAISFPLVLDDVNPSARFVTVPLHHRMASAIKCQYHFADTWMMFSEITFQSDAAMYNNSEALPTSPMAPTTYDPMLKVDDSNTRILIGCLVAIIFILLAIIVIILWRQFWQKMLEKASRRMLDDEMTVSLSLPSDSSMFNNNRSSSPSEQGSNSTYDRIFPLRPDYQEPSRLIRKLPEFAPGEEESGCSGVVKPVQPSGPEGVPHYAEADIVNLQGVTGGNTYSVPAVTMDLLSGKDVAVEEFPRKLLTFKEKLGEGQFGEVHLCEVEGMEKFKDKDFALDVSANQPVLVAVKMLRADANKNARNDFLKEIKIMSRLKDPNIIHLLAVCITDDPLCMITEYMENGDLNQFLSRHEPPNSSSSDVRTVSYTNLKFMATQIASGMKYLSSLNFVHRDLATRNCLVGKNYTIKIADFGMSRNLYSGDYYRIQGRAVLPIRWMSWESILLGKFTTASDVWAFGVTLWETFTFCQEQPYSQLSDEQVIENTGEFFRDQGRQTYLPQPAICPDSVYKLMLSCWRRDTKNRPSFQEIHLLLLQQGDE
As to the kind of experiment: Phospho-DDR2 cellular assay (collagen II induced DDR2 phosphorylation, ELISA). As to conditions: read-out: IC50 [p-DDR2]. In kind it is cell-based. As for the experimental part:
Assays were performed in a 384 well plate format, using cell line HEK293 transfected with human DDR2 (PLT460F_(DDR2)-P7-1)
Cells were seeded at a density of 10'000 cells/well in 384well poly-D-lysine coated Black/clear plate (Cellcoat Greiner) and incubated in DMEM medium in the presence of 10% fetal bovine serum at 37° C., 5% CO2 for 48 h. Medium was replaced by serum-free medium and cells were incubated at 37° C., 5% CO2 for 8 h. Compound to be tested in 5% DMSO or 5% DMSO and 50 μg/ml of chicken collagen II were added and cells were incubated at 37° C., 5% CO2 for 16 h
Cells were rinsed with ice-cold PBS, lysed with lysis buffer (M-PER Thermo #78501) for 30 min at room temperature and centrifuged for 1 min at 1000 RPM. In parallel, White High binding 384 well plates (Corning) were coated with mouse anti-human DDR2 capture antibody (R&D Systems kit DuoSet IC Human phospho-DDR2 ELISA), overnight at RT.
An aliquot of cell lysate was transferred to the coated plates and incubated for 2 h at RT. Plates were washed and mouse anti-phospho-tyrosine detection antibody (R&D Systems kit DuoSet IC Human phospho-DDR2 ELISA) conjugated to horse radish peroxidase (HRP) was added for 2 h at RT. Plates were washed and chemiluminescent substrate for HRP (Thermo) was added for 15 min at RT. Luminescence was measured on a luminometer.

[3] abbreviates: biochemical DDR2 autophosphorylation.
The mark [4] stands for this setting: 4 nM DDR2 kinase domain, 150 μM ATP, 150 min at 22° C.
The mark [5] stands for this setting: HEK293 transfected with human DDR2, 50 μg/ml chicken collagen II, 16 h.

For orientation: IC50 means the midpoint of a concentration-inhibition curve. Take `CNC(=O)c1cc(Oc2ccc(CNC(=O)Nc3cc(C)c(Cl)cc3OCCN3CCOCC3)cc2)ccn1` [compound 110, 4-(4-{3-[4-Chloro-5-methyl-2-(2-morpholin-4-yl-ethoxy)-phenyl]-ureidomethyl}-phenoxy)-pyridine-2-carboxylic acid methylamide]: the IC50 worked out at 290 nM in assay [1] (setting [3]) and 130 nM in assay [2] (cellular phospho-DDR2).

Consider `CNC(=O)c1cc(Oc2ccc(CNC(=O)Nc3cc(C)cnc3OC)cc2C)ccn1` [compound 20], for which the IC50 is 110 nM in assay [1] (setting [4]) and 41 nM in assay [2] (setting [5]).

On to `CNCCOc1ccc(C)cc1NC(=O)NCc1ccc(Oc2ccnc(C(=O)NC)c2)c(C)c1` [compound 215, 4-(2-Methyl-4-{3-[5-methyl-2-(2-methylamino-ethoxy)-phenyl]-ureidomethyl}-phenoxy)-pyridine-2-carboxylic acid methylamide], for which the IC50 in assay [1] (setting [3]) is 69 nM; in assay [2] (cellular phospho-DDR2) it was 40 nM.

Take `CNC(=O)c1cc(Oc2ccc(CNC(=O)Nc3cc(C)c(Cl)cc3OCCCN(C)C)cc2)ccn1` [compound 153, 4-(4-{3-[4-Chloro-2-(3-dimethylamino-propoxy)-5-methyl-phenyl]-ureidomethyl}-phenoxy)-pyridine-2-carboxylic acid methylamide]: the IC50 in assay [1] (setting [3]) came to 140 nM; in assay [2] (cellular phospho-DDR2) it was 55 nM.

Turning to `CNC(=O)c1cc(Oc2ccc(CNC(=O)Nc3cc(Cl)c(C)cc3OCCN(C)C)cc2)ccn1` [compound 174, 4-(4-{3-[5-Chloro-2-(2-dimethylamino-ethoxy)-4-methyl-phenyl]-ureidomethyl}-phenoxy)-pyridine-2-carboxylic acid methylamide], the concentration for half-maximal inhibition (IC50) is 140 nM in assay [1] (setting [3]) and 28 nM in assay [2] (cellular phospho-DDR2).

`CNC(=O)c1cc(Oc2ccc(CNC(=O)Nc3cc(Cl)c(C)cc3OC3CCNCC3)cc2)ccn1` [compound 178, 4-(4-{3-[5-Chloro-4-methyl-2-(piperidin-4-yloxy)-phenyl]-ureidomethyl}-phenoxy)-pyridine-2-carboxylic acid methylamide]: the IC50 stood at 35 nM in assay [1] (setting [3]) and 25 nM in assay [2] (cellular phospho-DDR2).

Take `CNC(=O)c1cc(Oc2ccc(CNC(=O)Nc3cc(C)c(Cl)cc3OC3CCNCC3)cc2)ccn1` [compound 124, 4-(4-{3-[4-Chloro-5-methyl-2-(piperidin-4-yloxy)-phenyl]-ureidomethyl}-phenoxy)-pyridine-2-carboxylic acid methylamide]: the IC50 in assay [1] (setting [3]) turned out to be 66 nM; in assay [2] (cellular phospho-DDR2), 40 nM.

In the case of `CNC(=O)c1cc(Oc2ccc(CNC(=O)Nc3cc(Cl)c(C)cc3OCC3CCCN3)cc2)ccn1` (centres unmarked) [compound 182, 4-(4-{3-[5-Chloro-4-methyl-2-(pyrrolidin-2-ylmethoxy)-phenyl]-ureidomethyl}-phenoxy)-pyridine-2-carboxylic acid methylamide], the IC50 turned out to be 59 nM in assay [1] (setting [3]) and 30 nM in assay [2] (cellular phospho-DDR2).

In the case of `CNCCOc1ccc(C)cc1NC(=O)NCc1ccc(Oc2ccnc(C(=O)NC)c2)cc1` [compound 170, 4-(4-{3-[5-Methyl-2-(2-methylamino-ethoxy)-phenyl]-ureidomethyl}-phenoxy)-pyridine-2-carboxylic acid methylamide], the IC50 in assay [1] (setting [3]) is 310 nM; in assay [2] (cellular phospho-DDR2), 195 nM.

For `CNC(=O)c1cc(Oc2ccc(CNC(=O)Nc3cc(C(F)(F)F)c(Cl)cc3OCCCN)cc2)ccn1` [compound 191, 4-(4-{3-[2-(3-Amino-propoxy)-4-chloro-5-trifluoromethyl-phenyl]-ureidomethyl}-phenoxy)-pyridine-2-carboxylic acid methylamide], the IC50 stood at 590 nM in assay [1] (setting [3]) and 106 nM in assay [2] (cellular phospho-DDR2).

As to `CNC(=O)c1cc(Oc2ccc(CNC(=O)Nc3c(OC)cc(Cl)c(C)c3Cl)cc2)ccn1` [compound 103, 4-{4-[3-(2,4-Dichloro-6-methoxy-3-methyl-phenyl)-ureidomethyl]-phenoxy}-pyridine-2-carboxylic acid methylamide], the values for the IC50 in assay [1] (setting [3]) and in assay [2] (cellular phospho-DDR2) were 14000 nM and 4600 nM, respectively.

Consider `Cn1cc(C(F)(F)F)cc(NC(=O)NCc2ccc(Oc3ccnc4[nH]ccc34)cc2)c1=O` [compound 3], for which the values for the IC50 in assay [1] (setting [4]) and in assay [2] (setting [5]) were 66 nM and 20 nM, respectively.

Regarding `CNC(=O)c1cc(Oc2ccc(CNC(=O)Nc3ccc(OC)nc3)cc2)ccn1` [compound 227, 4-{4-[3-(6-Methoxy-pyridin-3-yl)-ureidomethyl]-phenoxy}-pyridine-2-carboxylic acid methylamide], the IC50 in assay [1] (setting [3]) was found to be 5500 nM; in assay [2] (cellular phospho-DDR2), 6300 nM.

Take `CNC(=O)c1cc(Oc2ccc(CNC(=O)Nc3cc(C(F)(F)F)ccc3OCC3CCCN3)cc2)ccn1` (centres unmarked) [compound 156, 4-(4-{3-[2-(Pyrrolidin-2-ylmethoxy)-5-trifluoromethyl-phenyl]-ureidomethyl}-phenoxy)-pyridine-2-carboxylic acid methylamide]: the IC50 in assay [1] (setting [3]) amounted to 43 nM; in assay [2] (cellular phospho-DDR2), 16 nM.

Turning to `CNC(=O)c1cc(Oc2ccc(C(C)NC(=O)Nc3cc(Cl)ccc3OC)cc2)ccn1` (centres unmarked) [compound 72, 4-(4-{1-[3-(5-Chloro-2-methoxy-phenyl)-ureido]-ethyl}-phenoxy)-pyridine-2-carboxylic acid methylamide], the values for the IC50 in assay [1] (setting [3]) and in assay [2] (cellular phospho-DDR2) were 340 nM and 74 nM, respectively.

Regarding `CNC(=O)c1cc(Oc2ccc(CNC(=O)Nc3cc(C)cnc3Cl)cc2C)ccn1` [compound 25], the values for the IC50 in assay [1] (setting [4]) and in assay [2] (setting [5]) were 410 nM and 87 nM, respectively.

On to `CNC(=O)c1cc(Oc2ccc(CNC(=O)Nc3cc(Cl)ccc3OC)cc2F)ccn1` [compound 232, 4-{4-[3-(5-Chloro-2-methoxy-phenyl)-ureidomethyl]-2-fluoro-phenoxy}-pyridine-2-carboxylic acid methylamide], for which the figures for the IC50 in assay [1] (setting [3]) and in assay [2] (cellular phospho-DDR2) were 52 nM and 19 nM, respectively.

On to `CNC(=O)c1cc(Oc2ccc(CNC(=O)Nc3cc(C(F)(F)F)ccc3CC(N)=O)cc2)ccn1` [compound 209, 4-{4-[3-(2-Carbamoylmethyl-5-trifluoromethyl-phenyl)-ureidomethyl]-phenoxy}-pyridine-2-carboxylic acid methylamide], for which the IC50 in assay [2] (cellular phospho-DDR2) was determined as 985 nM.

On to `CNC(=O)c1cc(Oc2ccc(CNC(=O)Nc3cccc(S(C)(=O)=O)c3)cc2C)ccn1` [compound 154, 4-{4-[3-(3-Methanesulfonyl-phenyl)-ureidomethyl]-2-methyl-phenoxy}-pyridine-2-carboxylic acid methylamide], for which the IC50 in assay [2] (cellular phospho-DDR2) was determined as 1250 nM.

Take `CNC(=O)c1cc(Oc2ccc(CNC(=O)Nc3cc(C)c(Cl)cc3N(C)CCN(C)C)cc2)ccn1` [compound 162, 4-[4-(3-{4-Chloro-2-[(2-dimethylamino-ethyl)-methyl-amino]-5-methyl-phenyl}-ureidomethyl)-phenoxy]-pyridine-2-carboxylic acid methylamide]: the IC50 in assay [2] (cellular phospho-DDR2) is 1600 nM.

For the molecule `CNC(=O)c1cc(Oc2ccc(CNC(=O)Nc3ccc(Cl)c(Cl)c3)cc2)ccn1` [compound 3], in assay [2] (cellular phospho-DDR2), the IC50 came out at 195 nM.
